Measurements reported in ChEMBL document CHEMBL1134637, “Fluorescent tricyclic analogues of acyclovir and ganciclovir. A structure-antiviral activity study” (2001).
Converted amounts (≈) assume the structure as drawn.

Legend:
Format in all cases: functional
[1] = tested on: Human alphaherpesvirus 1; test: Minimal inhibitory concentration to reduce virus-induced cytopathicity against KOS strain of human Herpes Simplex Virus -1
[2] = tested on: Human alphaherpesvirus 1; test: Minimal inhibitory concentration to reduce virus-induced cytopathicity against McIntyre strain of human Herpes Simplex Virus-1
[3] = tested on: Human alphaherpesvirus 1; test: Minimal inhibitory concentration to reduce virus-induced cytopathicity against Thymidine kinase deficient(TK-) HSV-1 of Acyclovir
[4] = tested on: Human alphaherpesvirus 1; test: Minimal inhibitory concentration to reduce virus-induced cytopathicity against TK-/TK+ HSV-1 of VMW 837
[5] = tested on: Human alphaherpesvirus 1; test: Minimal inhibitory concentration to reduce virus-induced cytopathicity against F strain of human Herpes Simplex Virus-1 (HSV-1)
[6] = tested on: Human alphaherpesvirus 2; test: Minimal inhibitory concentration to reduce virus-induced cytopathicity against 196 strain of human Herpes Simplex Virus-2
[7] = tested on: Human alphaherpesvirus 2; test: Minimal inhibitory concentration to reduce virus-induced cytopathicity against G strain of human Herpes Simplex Virus-2
[8] = tested on: Human alphaherpesvirus 2; test: Minimal inhibitory concentration to reduce virus-induced cytopathicity against Lyons strain of human Herpes Simplex Virus-2
[9] = tested on: Vesicular stomatitis virus; test: Minimal inhibitory concentration to reduce virus-induced cytopathicity against VSV
[10] = tested on: Vaccinia virus; test: Minimal inhibitory concentration to reduce virus-induced cytopathicity against VV; details: Orthopoxvirus vaccinia
[11] = Minimal cytotoxic concentration (MCC) to cause a microscopically detectable change in normal cell morphology
[12] = tested on: Human alphaherpesvirus 1; test: Minimal inhibitory concentration to reduce virus-induced cytopathicity against Thymidine kinase deficient(TK-) HSV-1 (Acyclovir)
[13] = tested on: Human alphaherpesvirus 1; test: Minimal inhibitory concentration to reduce virus-induced cytopathicity against TK-/TK+ HSV-1 (VMW 837)
[14] = Human alphaherpesvirus 1, read-out: MIC
[15] = Human alphaherpesvirus 2, read-out: MIC

Compound	MIC [1] [µg/mL]	MIC [2] [µg/mL]	MIC [3] [µg/mL]	MIC [4] [µg/mL]	MIC [5, 14] [µg/mL]	MIC [6] [µg/mL]	MIC [7, 15] [µg/mL]	MIC [8] [µg/mL]	MIC [9] [µg/mL]	MIC [10] [µg/mL]	MCC [11] [µg/mL]	MIC [7]	MIC [5] [pug ml-1]	MIC [12] [µg/mL]	MIC [13] [µg/mL]
OCCOCn1cnc2c(O)n3c(CO)cnc3nc21	> 3.2	> 3.2	> 3.2	> 3.2	> 3.2	> 3.2	> 3.2	> 3.2	> 3.2	> 3.2	> 16	–	–	–	–
O=[N+]([O-])c1ccc(-c2cn3c(O)c4ncn(COCCO)c4nc3n2)cc1	9.6 (≈ 25.9 µM)	16 (≈ 43.2 µM)	> 16	> 16	16 (≈ 43.2 µM)	> 16	9.6 (≈ 25.9 µM)	> 16	> 16	> 16	80	–	–	–	–
Cc1ccc(-c2cn3c(O)c4ncn(COCCO)c4nc3n2)cc1	0.43 (≈ 1.27 µM)	0.07 (≈ 0.206 µM)	9.2 (≈ 27.1 µM)	82 (≈ 242 µM)	0.07 (≈ 0.206 µM)	0.2 (≈ 0.589 µM)	0.93 (≈ 2.74 µM)	0.4 (≈ 1.18 µM)	> 40	> 40	250	–	–	–	–
COc1ccc(-c2cn3c(O)c4ncn(COCCO)c4nc3n2)c(OC)c1	1.92 (≈ 4.98 µM)	1.92 (≈ 4.98 µM)	> 16	1.92 (≈ 4.98 µM)	1.92 (≈ 4.98 µM)	1.92 (≈ 4.98 µM)	3.2 (≈ 8.3 µM)	1.92 (≈ 4.98 µM)	16 (≈ 41.5 µM)	16 (≈ 41.5 µM)	80	–	–	–	–
Cc1nc2nc3c(ncn3COCCO[Si](C)(C)C(C)(C)C)c(O)n2c1C(c1ccccc1)(c1ccccc1)c1ccccc1	> 10	–	> 10	> 10	–	–	> 10	–	> 10	2 (≈ 3.23 µM)	40	–	–	–	–
O=c1c2ncn(COCCO)c2nc2n(Cc3ccccc3)c(-c3ccccc3)cn12	> 100	–	> 100	> 100	–	–	–	–	> 100	> 100	> 100	> 100 µg/mL	–	–	–
COc1ccc(-c2cn3c(O)c4ncn(COCCO)c4nc3n2)cc1	0.1 (≈ 0.281 µM)	0.03 (≈ 0.0844 µM)	5.9 (≈ 16.6 µM)	21 (≈ 59.1 µM)	0.07 (≈ 0.197 µM)	0.2 (≈ 0.563 µM)	0.15 (≈ 0.422 µM)	0.2 (≈ 0.563 µM)	> 40	> 40	150	–	–	–	–
OCCOCn1cnc2c(O)n3c(-c4ccccc4)c(-c4ccccc4)nc3nc21	1.92 (≈ 4.78 µM)	9.6 (≈ 23.9 µM)	> 16	> 16	9.6 (≈ 23.9 µM)	9.6 (≈ 23.9 µM)	1.92 (≈ 4.78 µM)	16 (≈ 39.9 µM)	> 16	> 16	> 16	–	–	–	–
COc1ccccc1-c1cn2c(O)c3ncn(COCCO)c3nc2n1	1.92 (≈ 5.4 µM)	1.92 (≈ 5.4 µM)	> 80	9.6 (≈ 27 µM)	1.92 (≈ 5.4 µM)	9.6 (≈ 27 µM)	1.92 (≈ 5.4 µM)	9.6 (≈ 27 µM)	> 80	> 80	400	–	–	–	–
OCCOCn1cnc2c(O)n3cc(-c4ccccc4)nc3nc21	0.4 (≈ 1.23 µM)	0.2 (≈ 0.615 µM)	–	> 70	0.7 (≈ 2.15 µM)	0.2 (≈ 0.615 µM)	1.3 (≈ 4 µM)	0.7 (≈ 2.15 µM)	> 100	> 100	> 100	–	–	–	–
Cc1c(-c2ccccc2)nc2nc3c(ncn3COC(CO)CO)c(O)n12	0.02 (≈ 0.0541 µM)	0.005 (≈ 0.0135 µM)	3.2 (≈ 8.66 µM)	0.02 (≈ 0.0541 µM)	0.005 (≈ 0.0135 µM)	0.005 (≈ 0.0135 µM)	0.03 (≈ 0.0812 µM)	0.02 (≈ 0.0541 µM)	> 240	> 400	> 400	–	–	–	–
COc1ccc(-c2cn3c(O)c4ncn(COC(CO)CO)c4nc3n2)cc1	0.005 (≈ 0.013 µM)	0.005 (≈ 0.013 µM)	> 16	0.04 (≈ 0.104 µM)	0.005 (≈ 0.013 µM)	0.08 (≈ 0.208 µM)	0.03 (≈ 0.0778 µM)	0.02 (≈ 0.0519 µM)	> 80	> 80	> 80	–	–	–	–
Cc1ccc(-c2cn3c(O)c4ncn(COC(CO)CO)c4nc3n2)cc1	0.02 (≈ 0.0541 µM)	0.08 (≈ 0.217 µM)	> 16	0.1 (≈ 0.271 µM)	0.01 (≈ 0.0271 µM)	0.13 (≈ 0.352 µM)	0.13 (≈ 0.352 µM)	0.08 (≈ 0.217 µM)	> 16	> 16	80	–	–	–	–
COc1ccc(OC)c(-c2cn3c(O)c4ncn(COCCO)c4nc3n2)c1	9.6 (≈ 24.9 µM)	16 (≈ 41.5 µM)	> 16	> 16	16 (≈ 41.5 µM)	> 16	9.6 (≈ 24.9 µM)	> 16	> 16	> 16	80	–	–	–	–
Cc1nc2nc3c(ncn3COCCO)c(O)n2c1C(c1ccccc1)(c1ccccc1)c1ccccc1	> 16	> 16	> 16	> 16	> 16	> 16	> 16	> 16	> 16	> 16	80	–	–	–	–
OCC(CO)OCn1cnc2c(O)n3ccnc3nc21	0.7 (≈ 2.51 µM)	0.7 (≈ 2.51 µM)	400 (≈ 1430 µM)	–	0.7 (≈ 2.51 µM)	2 (≈ 7.16 µM)	2 (≈ 7.16 µM)	0.7 (≈ 2.51 µM)	–	400 (≈ 1430 µM)	400	–	–	–	–
OCCOCn1cnc2c(O)n3ccnc3nc21	20 (≈ 80.2 µM)	20 (≈ 80.2 µM)	400 (≈ 1600 µM)	–	–	70 (≈ 281 µM)	20 (≈ 80.2 µM)	10 (≈ 40.1 µM)	–	400 (≈ 1600 µM)	400	–	4	–	–
OCCOCn1cnc2c(O)n3c(-c4ccc(C(c5ccccc5)c5ccccc5)cc4)c(-c4ccccc4)nc3nc21	> 16	> 16	> 16	> 16	> 16	> 16	> 16	> 16	> 16	> 16	80	–	–	–	–
OCCOCn1cnc2c(O)n3c(C(c4ccccc4)(c4ccccc4)c4ccccc4)cnc3nc21	> 16	> 16	> 16	> 16	> 16	> 16	> 16	> 16	> 16	> 16	80	–	–	–	–
COc1ccc(-c2nc3nc4c(ncn4COCCO)c(O)n3c2-c2ccc(C(c3ccccc3)c3ccccc3)cc2)cc1	> 16	> 16	> 16	> 16	> 16	> 16	–	> 16	> 16	> 16	80	>16 pug ml-1	–	–	–
OCCOCn1cnc2c(O)n3cc(-c4ccc5ccccc5c4)nc3nc21	5.8 (≈ 15.5 µM)	9.6 (≈ 25.6 µM)	16 (≈ 42.6 µM)	12.8 (≈ 34.1 µM)	9.6 (≈ 25.6 µM)	16 (≈ 42.6 µM)	6.4 (≈ 17 µM)	9.6 (≈ 25.6 µM)	> 16	> 16	> 80	–	–	–	–
CC(=O)OCCOCn1cnc2c(O)n3cc(-c4ccc5ccccc5c4)nc3nc21	> 16	> 16	> 16	> 16	> 16	> 16	> 16	> 16	> 16	> 16	> 80	–	–	–	–
CCc1cn2c(O)c3ncn(COCCO)c3nc2n1	1.92 (≈ 6.92 µM)	9.6 (≈ 34.6 µM)	240 (≈ 866 µM)	48 (≈ 173 µM)	9.6 (≈ 34.6 µM)	9.6 (≈ 34.6 µM)	9.6 (≈ 34.6 µM)	9.6 (≈ 34.6 µM)	> 400	240 (≈ 866 µM)	> 400	–	–	–	–
COc1cccc(-c2cn3c(O)c4ncn(COCCO)c4nc3n2)c1	1.92 (≈ 5.4 µM)	0.64 (≈ 1.8 µM)	> 80	9.6 (≈ 27 µM)	1.92 (≈ 5.4 µM)	3.2 (≈ 9.01 µM)	1.92 (≈ 5.4 µM)	3.2 (≈ 9.01 µM)	240 (≈ 675 µM)	> 400	> 400	–	–	–	–
Cc1c(-c2ccccc2)nc2nc3c(ncn3COCCO)c(O)n12	0.11 (≈ 0.324 µM)	0.06 (≈ 0.177 µM)	3.2 (≈ 9.43 µM)	3.2 (≈ 9.43 µM)	0.04 (≈ 0.118 µM)	0.1 (≈ 0.295 µM)	0.16 (≈ 0.471 µM)	0.07 (≈ 0.206 µM)	> 200	> 200	300	–	–	–	–
OCC(CO)OCn1cnc2c(O)n3cc(-c4ccccc4)nc3nc21	0.02 (≈ 0.0563 µM)	0.005 (≈ 0.0141 µM)	–	0.5 (≈ 1.41 µM)	0.005 (≈ 0.0141 µM)	0.02 (≈ 0.0563 µM)	0.3 (≈ 0.844 µM)	0.005 (≈ 0.0141 µM)	> 175	> 90	> 175	–	–	–	–
Nc1nc2c(ncn2COCCO)c(=O)[nH]1 [ACYCLOVIR]	0.13 (≈ 0.577 µM)	0.13 (≈ 0.577 µM)	–	–	0.08 (≈ 0.355 µM)	0.07 (≈ 0.311 µM)	0.19 (≈ 0.844 µM)	0.28 (≈ 1.24 µM)	> 80	> 80	> 400	–	–	19 (≈ 84.4 µM)	7.1 (≈ 31.5 µM)
O=c1[nH]c(=O)n([C@H]2C[C@H](O)[C@@H](CO)O2)cc1/C=C/Br [BRIVUDINE]	0.02 (≈ 0.06 µM)	0.01 (≈ 0.03 µM)	90 (≈ 270 µM)	> 100	0.02 (≈ 0.06 µM)	> 100	> 100	> 100	> 200	9.2 (≈ 27.6 µM)	> 400	–	–	–	–
Nc1nc2c(ncn2COC(CO)CO)c(=O)[nH]1 [GANCICLOVIR]	0.006 (≈ 0.0235 µM)	0.006 (≈ 0.0235 µM)	0.48 (≈ 1.88 µM)	0.07 (≈ 0.274 µM)	0.004 (≈ 0.0157 µM)	0.02 (≈ 0.0784 µM)	0.01 (≈ 0.0392 µM)	0.04 (≈ 0.157 µM)	> 100	> 100	> 100	–	–	–	–
